Test results published in US9363996B2, “Compositions and method for blocking ethylene response in field crops using 3-(cy-clopropyl-l-enyl)-propanoic salt” (Yissum Research Development Company of the Hebrew …, priority 2009, dated 2016).

Experiments:
[1] = tested on: excised cotton leaves at different developmental stages; experiment: Ethylene-induced chlorophyll degradation in leaves of mature cotton plants; type: in vivo, cotton (Gossyium hirsutum barbadense L.)
Protocol: (§1) (1) Abscission—This is a very sensitive model system for studying the effects of plant hormones. Ethylene induces the process of abscission, while auxin delays it. In the laboratory the experimental system is based on plant organ explants, which include the abscission zone. Abscission is induced by exposure to ethylene and at the termination of the experiment the number of abscised organs, usually either leaf blades or petioles are counted and the fraction of abscission is calculated. In the case of fruit, the decrease in fruit retention force is analyzed. In cotton, when WS-CPD (the ethylene-action antagonist herein disclosed) is tested, the whole plants or explants are pretreated by spraying with the antagonist, dissolved in a phosphate buffer solution (10-20 mM, pH 7.0) including 0.1% commercially available Kinetic™ as surfactant, and left to incubate for a predetermined time, usually between 6 and 24 h. The plants or explants are then further exposed for 24 h to ethylene gas (5 to 20 μL L^−1). The plants or explants are then ventilated and incubated for the required time under controlled conditions. At the end of the experiment the percentage of abscission is determined. (2) Chlorophyll degradation—This is a standard model for studying senescence. Plant material (whole plants, excised leaves or leaf discs) are pretreated. In cotton, tobacco and wheat, when WS-CPD is tested, the whole plants or explants are pretreated by spraying with the antagonist, dissolved in phosphate buffer solution (10-20 mM, pH 7.0) including 0.1% commercially available Kinetic™ surfactant, and left to incubate for a predetermined time, usually between 6 and 241. The plants or explants are then further exposed for 24 h to ethylene gas (1 to 100 μL L^−1), or sprayed with Ethephon™ (wheat; 250 to 750 μL L^−1). The plants or explants are then ventilated and incubated for the required time under controlled conditions. At the end of the experiment a dimethylsulfoxide (DMSO) extract of the plant tissue is prepared, and the chlorophyll content of the extract is determined by spectrophotometric analysis. The chlorophyll content is reported either on a fresh, dry weight basis, or on a surface area basis. (3) Epinasty—This is also one of the classical methods for studying ethylene effects in plants. The extent of ethylene-induced epinasty of leaves is determined by measuring the change of the angle between the petiole and the stem shoot or blade. After exposure of the intact plant to ethylene, the upright grown leaves bend downward. The increase in the angle values (degrees) between petiole and the stem is used as a measure of the effect of the ethylene. […]

[2] = tested on: mature cotton leaf explants; experiment: Ethylene-induced petiole abscission of mature cotton leaf explants; type: in vivo, cotton (Gossyium hirsutum barbadense L.); conditions: for abscission: day 5
Protocol: as §1

wheat plants [3] = experiment: Wheat grain weight at the milky stages after Ethephon treatment; type: in vivo, wheat (Triticum turgidum var. 'Gdera'); conditions: for grain yield increase by antagonizing Ethephon: fresh weight basis
Protocol: as §1, with “ethylene. When WS-CPD is tested on cotton and wheat plants, the whole plants are pretreated by spraying with the antagonist dissolved in phosphate buffer solution (10-20 mM, pH 7.6) including 0.1% Kinetic™ as surfactant, and left to incubate for a predetermined time, usually between 6 and 24 h. The plants are then further exposed for 24 h to ethylene gas (cotton, 5 to 10 μL L^−1), or sprayed with Ethephon™ (wheat, 250 to 750 μL L^−1). The plants are then ventilated and incubated for the required time under controlled conditions. The epinastic effect is expressed by measuring the degree values of the downward curvature between the blade and petiole (cotton, FIGS. 1-3) or between the blade and the stem (wheat, FIGS. 31 and 32). (4) Wheat Grain yield—This is a common test of the effects of exposure of monocot plants either to environmental stresses such as drought that induce senescence by increasing endogenous ethylene production. Excessive internal or external ethylene will accelerate senescence which will lead to reduced grain yield. In this project the intact plants were grown in the greenhouse up to the spike hading at milky stage I and II. The plants were then sprayed with the dissolved WS-CPD in phosphate buffer solution (10 mM, pH 7.6) including 0.1% Kinetic™ as surfactant. Young Cotton Seedlings” for “ethylene.”

wheat plants [4] = experiment: Wheat grain yield, 450 ml pots in peat-based medium; type: in vivo, wheat (Triticum turgidum var. 'Gdera'); conditions: one spray WS-CPD 120 μl L^−1 (so in the source) at milky stage II
Protocol: In another experiment the wheat plants were grown in 450 ml pots in a peat-based medium. The plants were sprayed once with WS-CPD (120 μl L^−1) at milky stage II, 7 months after germination. The results confirmed previous results, showing a −15% increase in grain yield over the weight of the grains of untreated control plants (FIG. 54). This is also evident when calculating the distribution of grain weight (as percentage of the total number of grains) and comparing them with grain weight distribution from control plants.

O=C([O-])CCC1=CC1.[Na+] [WS-CPD, 3-cyclopropyl-1-enyl-propanoic sodium salt]
ethylene-induced chlorophyll degradation ([1]; mature leaves, WS-CPD 480 μg L^−1 (so in the source)): less effective
inhibition of ethylene-induced chlorophyll degradation ([1]; mature leaves, WS-CPD 90 and 240 μg mL^−1): 95%
ethylene-induced chlorophyll degradation ([1]; young leaves, WS-CPD 10 μg mL^−1, ethylene 10 μL L^−1): completely antagonized
ethylene-induced chlorophyll degradation ([1]; young leaves, WS-CPD 270 μg mL^−1): less effective
abscission percentage ([2]; WS-CPD 90 μg mL^−1): slightly lower than that of the untreated air control
abscission ([2]; WS-CPD 10, 30 and 90 μg mL^−1): 100%
decrease of abscission ([2]; WS-CPD 10 and 30 μg mL^−1, after 3 days of incubation, ethylene 10 μL L^−1): 20%
abscission ([2]; WS-CPD 240-480 μg mL^−1): 50%
Ethephon-induced decrease of grain weight (wheat plants [3]; WS-CPD 135 μg mL^−1 pretreatment at milky stage I, both milky stages): prevented the decrease
overcoming the Ethephon reduction in grain weight (wheat plants [3]; WS-CPD 80 to 180 μg mL^−1): best results
grain yield increase by antagonizing Ethephon (wheat plants [3]; milky stage I): ca. 5%
grain yield increase by antagonizing Ethephon (wheat plants [3]; milky stage II): ca. 16%
increase in grain yield over untreated control plants (wheat plants [4]): −15%
